Measurements: patent publication US20170065564A1, “BIS-CYCLIC GUANIDINE COMPOUND COMPOSITIONS, METHODS OF USE AND TREATMENT THEREOF” (University of South Florida, priority 2014, published 2017)

How the values were obtained:
[1] = system: Klebsiella pneumoniae biofilm; experiment: Minimum biofilm eradication concentration (MBEC) assay; type: cell-based; settings: 24 h biofilm, purified compound
Experimental: (§1) The minimum biofilm eradication concentration (MBEC) was determined in 96-well microtiter plates as follows. Broth cultures of ESKAPE strains were grown using the conditions described above. Biofilms for each of the ESKAPE pathogens were generated from these as we have previously described for S. aureus, however human serum was not used for non-staphylococcal organisms.^44 46 For all organisms, biofilms were developed by standardizing an overnight culture into fresh media to an OD600 of 0.5 and adding 150 μl into each well of a 96-well microtiter plate. […] These cultures were incubated at 37° C. overnight alongside no drug controls. After 24 hours, the media was removed from wells and the biofilm resuspended in phosphate buffered saline (PBS). Cultures were mixed by vigorous pipetting, before being serially diluted in PBS, and plated in duplicate on relevant agar. Plates were incubated at 37° C. for 24 hours, and CFUs determined by enumeration. Each analysis was performed using three technical replicates, and antibiofilm activity was determined by comparing treated to untreated samples.

[2] = system: Enterococcus faecium biofilm; experiment: as above; type: cell-based; settings: 24 h biofilm, purified compound
Experimental: as §1

[3] = system: Pseudomonas aeruginosa biofilm; experiment: as above; type: cell-based; settings: 24 h biofilm, purified compound
Experimental: as §1

[4] = system: Acinetobacter baumannii biofilm; experiment: as above; type: cell-based; settings: 24 h biofilm, purified compound
Experimental: as §1

[5] = system: Enterobacter cloacae biofilm; experiment: as above; type: cell-based; settings: 24 h biofilm, purified compound
Experimental: as §1

[6] = system: Staphylococcus aureus biofilm; experiment: as above; type: cell-based; settings: 24 h biofilm, purified compound
Experimental: as §1

P. aeruginosa [7] = experiment: MIC reanalysis in the presence of the efflux inhibitor reserpine; type: cell-based, Pseudomonas aeruginosa
Source text: (§2) Given the minor variations observed in MIC for three of the Gram-negative organisms, and that these particular bacteria are renowned for efflux detoxification of antibacterial agents, we hypothesized that the differences observed likely relate to variation in efflux pump activity between strains. […] The effects observed appear to be universal, regardless of strain or compound tested. […] It should be noted that the data presented herein represents a worst-case scenario. […] Similar data was returned for all front runner agents, against all 10 isolates of the three Gram-negative organisms (data not shown). These findings support the hypothesis that inherent efflux mechanisms of certain Gram-negative organisms result in MIC variations for the lead bis-cyclic guanidines between clinical isolates.

K. pneumoniae [8] = experiment: Resistance serial passage assay; type: cell-based, Klebsiella pneumoniae; settings: 8 passages, concentration doubled each day
Experimental: ESKAPE pathogens were grown overnight in liquid media at 37° C. These cultures were then diluted 1:100 in fresh media, and seeded into a 96-well plate. Lead bis-cyclic guanidines or control agents were added to respective wells at half MIC concentrations. Plates were then incubated for 24 hours at 37° C., with bacteria removed from these cultures on the following day, to inoculate fresh media (1:100 dilution) containing compounds at a 2-fold higher concentrations. These were then grown overnight, and the procedure repeated for a total of eight days. […] Each experiment was performed in triplicate, yielding identical results.

E. cloacae = experiment: MIC reanalysis in the presence of the efflux inhibitor reserpine; type: cell-based, Enterobacter cloacae; settings: E. cloacae strain 1446; with 100 μM of reserpine
Source text: as §2

P. aeruginosa [9] = type: cell-based, Pseudomonas aeruginosa; settings: 8 passages, concentration doubled each day
Experimental: ESKAPE pathogens were grown overnight in liquid media at 37° C. These cultures were then diluted 1:100 in fresh media, and seeded into a 96-well plate. Lead bis-cyclic guanidines or control agents were added to respective wells at half MIC concentrations. […] These were then grown overnight, and the procedure repeated for a total of eight days.

K. pneumoniae [10] = experiment: MIC reanalysis in the presence of the efflux inhibitor reserpine; type: cell-based, Klebsiella pneumoniae; settings: K. pneumoniae strain 1441; with 100 μM of reserpine
Source text: as §2

Row | SMILES | MBEC50 [1] [µM] | MBEC50 [2] [µM] | MBEC50 [3] [µM] | MBEC50 [4] [µM] | MBEC50 [5] [µM] | MBEC50 [6] [µM] | effect on growth, combined with reserpine (P. aeruginosa [7]; P. aeruginosa isolate 1420, 2 μM compound plus 100 μM reserpine) | effect on growth, agent alone (P. aeruginosa [7]; P. aeruginosa isolate 1420, 100 μM of reserpine or 2 μM of compound 1 individually) | increase in MIC after serial passage (K. pneumoniae [8]) [fold] | effect on growth, in combination with reserpine (E. cloacae) | increase in MIC after serial passage (P. aeruginosa [9]) [fold] | effect on growth, in combination with reserpine (K. pneumoniae [10]) | effect on growth, paired with reserpine (P. aeruginosa [7]; P. aeruginosa strain 1414, with reserpine)
1 | CCCCCCCN1C(=N)N(CCCC[C@H]2CNC(=N)N2CCc2cccc(C(F)(F)F)c2)C[C@@H]1CCCC [Compound 1] | 6.97 | 38.84 | 19.68 | 14.82 | 13.02 | 13.87 | strongly inhibited growth | no effect | – | – | – | – | –
2 | CCCC[C@H]1CN(CCCC[C@H]2CNC(=N)N2CCc2cccc(C(F)(F)F)c2)C(=N)N1CCCCC1CCCCC1 [Compound 2, (S)-4-butyl-3-(4-cyclohexylbutyl)-1-(4-((S)-2-imino-3-(3-(trifluoromethyl)phenethyl)imidazolidin-4-yl)butyl)imidazolidin-2-imine] | 4.65 | 29.20 | 30.62 | 15.84 | 13.44 | 2.18 | – | – | 8 | – | – | – | –
3 | CCCCCCCN1C(=N)N(CCCC[C@H]2CNC(=N)N2CCc2cccc(C(F)(F)F)c2)C[C@@H]1CC1CCCCC1 [Compound 7] | 4.81 | 26.30 | 45.56 | 13.10 | 14.54 | 4.35 | – | – | 8 | complete inhibition of growth | – | – | –
4 | CCCCCCCN1C(=N)N(CCCC[C@H]2CNC(=N)N2CCCCC2CCCCC2)C[C@@H]1CC1CCCCC1 [Compound 16] | 6.28 | – | – | 14.13 | 12.68 | 7.58 | – | – | 8 | – | 8 | complete inhibition of growth | –
5 | CCCCCCCN1C(=N)N(CCCC[C@H]2CNC(=N)N2CCC23CC4CC(CC(C4)C2)C3)C[C@@H]1CCCC [Compound 19] | – | 13.27 | – | 24.07 | 15.14 | – | – | – | 8 | – | 8 | – | complete inhibition of growth
